Source: patent US9045523B2, “Compounds” (PHAROS PHARMACEUTICALS INC., priority 2006, dated 2015)

Columns and labels:
FGF receptors = conditions: Yeh et al; cited from earlier work
interleukin-10 synthesis = conditions: antigen stimulated mice spleen cells in vitro; cited from earlier work
feline herpes infection = conditions: reactivation of feline herpes infection; Roberts et al; cited from earlier work
interleukin-2 synthesis = conditions: antigen stimulated mice spleen cells in vitro; cited from earlier work
IFN synthesis = conditions: antigen stimulated mice spleen cells in vitro; cited from earlier work
articular inflammation = conditions: cited from earlier work
β-glucosidases = conditions: Kolarova et al; cited from earlier work
[1] = acid conditions of the stomach; cited from earlier work
[2] = test system: antigen stimulated mice spleen cells; conditions: in vitro; cited from earlier work
[3] = Cahalon et al; cited from earlier work
VEGF synthesis = experiment: PHA treated human whole blood cytokine synthesis: VEGF; assay type: cell-based; conditions: 0.01 μM; human whole blood in which VEGF synthesis has been inhibited by PHA; days 1-4
Protocol: (§1) Blood was taken from a healthy young volunteer, into heparin Vacutainers®. Whole-blood was diluted to give a final concentration of 1/10 in culture medium (CM). CM consisted of RPMI 1640 with L-glutamine, penicillin and streptomycin. PHA (phytohaemagglutinin) solution and N-acetyl-β,β-diglucosylamine octasulphate (DOS) and PHA solution were added to non-control samples. Final drug concentrations tested were 100 μM, 1 μM, 0.1 μM and 0.01 μM. All samples were tested in triplicate.
(§2) Reagents were placed in four sets of 24-well (6×4) flat-bottomed plates (Corning US) and incubated for 1, 2, 3 and 4 days respectively (incubator conditions: 37° C., humid and 5% CO2). […]
(§3) The protocol of Lagrelius et al. was followed (Cytokine, 2006, 33, pp. 156-165). The culture supernatants were analysed once for concentrations of IL-1α, IL-1β, IL-2, IL-4, IL-5, IL-6, IL-7, IL-10, IL-12, IL-13, IL-17, IFNγ, GCSF, GM-CSF, MCP-1, RANTES, VEGF and TNFα. The cytokines were measured simultaneously using a Bio-Plex assay. […] A monoclonal antibody specific for each cytokine of interest is coupled onto a particular set of beads with a known internal fluorescence, and several combinations of cytokine antibody coated beads can be included and thus multiple cytokines are measured simultaneously. […] A minimum of 100 beads per region were analysed. […]

IL-10 synthesis = experiment: PHA stimulated human whole blood cytokine synthesis: IL-10; assay type: cell-based; conditions: 0.01 μM, days 1-4
Protocol: as §1, §2, §3

IL-17 synthesis = experiment: PHA stimulated human whole blood cytokine synthesis: IL-17; assay type: cell-based; conditions: 0.01 μM, days 1-4
Protocol: as §1, §2, §3

TNFα synthesis [4] = experiment: PHA stimulated human whole blood cytokine synthesis: TNFα; assay type: cell-based; conditions: 0.01 μM, days 1-4, Bio-Plex
Protocol: as §1, §2, §3

GCSF synthesis = experiment: PHA stimulated human whole blood cytokine synthesis: GCSF; assay type: cell-based; conditions: 0.01 μM, days 1-4
Protocol: as §1, §2, §3

IL-1α synthesis = experiment: PHA stimulated human whole blood cytokine synthesis: IL-1α; assay type: cell-based; conditions: 0.01 μM, days 1-4
Protocol: as §1, §2, §3

GM-CSF synthesis = experiment: PHA stimulated human whole blood cytokine synthesis: GM-CSF; assay type: cell-based; conditions: 0.01 μM, days 1-4
Protocol: as §1, §2, §3

IL-6 synthesis = experiment: PHA stimulated human whole blood cytokine synthesis: IL-6; assay type: cell-based; conditions: 0.01 μM, days 1-4
Protocol: as §1, §2, §3

TNFα synthesis [5] = experiment: LPS stimulated U937 macrophage TNFα synthesis; assay type: cell-based, human; conditions: PMA differentiated U937; 80 nM lps 72 hours; 0.10, 1.00, 10.00 and 100.00 μM
Protocol: U937 human monocytes were incubated with 5 μg/ml PMA (phorbol myristate acetate) for 5 days in order to induce differentiation. N-acetyl-β,β-diglucosylamine octasulphate (DOS) was added to the macrophages produced at concentrations of 0 (control), 0.10, 1.00, 10.00 and 100.00 μM.

IL-13 synthesis = experiment: PHA stimulated human whole blood cytokine synthesis: IL-13; assay type: cell-based; conditions: 0.01 μM, days 1-4
Protocol: as §1, §2, §3

TNFα synthesis [6] = experiment: TNFα synthesis in whole blood stimulated with 5 μg/ml PHA; assay type: cell-based; conditions: human whole blood 1:10, 5 μg/ml PHA for 4 days; 0.01, 0.1 or 1 μM; ELISA days 1-4
Protocol: Human whole blood was diluted 1:10 in RPMI and stimulated with 5 μg/ml phytohaemagglutinin (PHA) for 4 days in the absence or presence of N-acetyl-β,β-diglucosylamine octasulphate (DOS) or N-acetyl-β,β-diglucosylamine oligosulphate 1200 at concentrations of 0.01, 0.1 or 1 μM. The TNFα concentrations were assayed by ELISA on days 1, 2, 3 and 4.

IL-5 synthesis = experiment: PHA stimulated human whole blood cytokine synthesis: IL-5; assay type: cell-based; conditions: 0.01 μM, days 1-4
Protocol: as §1, §2, §3

IL-4 synthesis = experiment: PHA stimulated human whole blood cytokine synthesis: IL-4; assay type: cell-based; conditions: 0.01 μM, days 1-4
Protocol: as §1, §2, §3

IFNγ synthesis = experiment: PHA stimulated human whole blood cytokine synthesis: IFNγ; assay type: cell-based; conditions: 0.01 μM, days 1-4
Protocol: as §1, §2, §3

IL-1β synthesis = experiment: PHA stimulated human whole blood cytokine synthesis: IL-1β; assay type: cell-based; conditions: 0.01 μM, days 1-4
Protocol: as §1, §2, §3

IL-7 synthesis = experiment: PHA stimulated human whole blood cytokine synthesis: IL-7; assay type: cell-based; conditions: 0.01 μM, days 1-4
Protocol: as §1, §2, §3

IL-2 synthesis = experiment: PHA stimulated human whole blood cytokine synthesis: IL-2; assay type: cell-based; conditions: 0.01 μM, days 1-4
Protocol: as §1, §2, §3

inflamed joints = conditions: Ronca et al; cited from earlier work
follistatin = follistatin (Rattus norvegicus, UniProt P21674); conditions: Innis et al; cited from earlier work
Sequence of follistatin (P21674 93-165 limits assumed): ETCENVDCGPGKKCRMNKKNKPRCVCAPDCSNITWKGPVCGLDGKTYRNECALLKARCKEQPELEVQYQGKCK

[7] = molecular target: pro-inflammatory chemokine MCP-1 (Homo sapiens, UniProt P13500); conditions: Yonghao et al; cited from earlier work
Sequence of pro-inflammatory chemokine MCP-1 (P13500 24-99): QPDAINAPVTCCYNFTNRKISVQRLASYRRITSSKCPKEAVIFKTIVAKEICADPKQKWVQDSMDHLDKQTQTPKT

[8] = test system: C-type lectin-like domain of a recombinant natural killer cell receptor; conditions: Kogelberg et al; cited from earlier work
hepatocyte growth factor = hepatocyte growth factor (Homo sapiens, UniProt P14210); conditions: Zhou et al; cited from earlier work
Sequence of hepatocyte growth factor (P14210 31-127 limits assumed, species assumed): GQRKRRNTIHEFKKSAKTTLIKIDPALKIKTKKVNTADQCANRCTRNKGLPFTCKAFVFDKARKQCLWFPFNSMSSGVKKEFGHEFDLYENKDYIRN

For 4,6-dihydroxysucrose hexasulphate, the “FGF dependent dimerisation of FGF receptors” value (shortened to “FGF dependent dimerisation”) (FGF receptors) is given as “not at all”.

In the case of OC[C@H]1O[C@@H](N[C@@H]2O[C@H](CO)[C@@H](O)[C@H](O)[C@H]2O)[C@H](O)[C@@H](O)[C@@H]1O [di-β-D-glucosylamine], the interleukin-10 synthesis (interleukin-10 synthesis) is listed as “inhibits”, the “development of ocular inflammation” value (feline herpes infection) is listed as “prevents the development of ocular inflammation” and the interleukin-2 synthesis (interleukin-2 synthesis) is listed as “inhibits”. The IFN synthesis (IFN synthesis) was “inhibits”, the articular inflammation (articular inflammation; mice, parenteral routes, Bolton et al) was “inhibits articular inflammation” and the “activity by the oral route” value (articular inflammation; oral route) was “inactive”. For the same molecule, the “inhibition of β-glucosidases” value (β-glucosidases) was “inhibit β-glucosidases”, the “hydrolysis of the glycosylamine group” value [1] was “readily hydrolysed” and the “antigen induced immune cell proliferation” value [2] was “inhibits”.

In the case of CC(=O)N[C@H]1C(O)O[C@H](CO)[C@@H](O[C@@H]2OC(C(=O)O)=C[C@H](O)[C@H]2O)[C@@H]1O (stereo partly drawn) [desulphated heparin disaccharide, O-(α-L-ido-4-enepyranosyluronic acid)-(1→4)-2-deoxy-N-acetyl-D-glucoseamine], the “effectiveness as an anti-inflammatory agent” value [3] is listed as “ineffective”.

In the case of CC(=O)N([C@@H]1O[C@H](COS(=O)(=O)O)[C@@H](OS(=O)(=O)O)[C@H](OS(=O)(=O)O)[C@H]1OS(=O)(=O)O)[C@@H]1O[C@H](COS(=O)(=O)O)[C@@H](OS(=O)(=O)O)[C@H](OS(=O)(=O)O)[C@H]1OS(=O)(=O)O [N-acetyl-β,β-diglucosylamine octasulphate], the “level of VEGF” value (VEGF synthesis) is reported as “increased”, the “PHA stimulated synthesis of IL-10” value (IL-10 synthesis) is reported as “inhibits” and the “PHA stimulated synthesis of IL-17” value (IL-17 synthesis) is reported as “inhibits”. For the same molecule, the “PHA stimulated synthesis of TNFα” value (TNFα synthesis [4]) was “inhibits”, the “PHA stimulated synthesis of GCSF” value (GCSF synthesis) was “inhibits” and the “PHA stimulated synthesis of IL-1α” value (IL-1α synthesis) was “inhibits”. For the same molecule, the “PHA stimulated synthesis of GM-CSF” value (GM-CSF synthesis) was “inhibits”, the “PHA stimulated synthesis of IL-6” value (IL-6 synthesis) was “inhibits” and the “inhibition of TNFα synthesis” value (TNFα synthesis [5]) was “inhibited TNFα synthesis at all concentrations down to 0.1 μM”. The “PHA stimulated synthesis of IL-13” value (IL-13 synthesis) was “inhibits”, the “inhibition of TNFα synthesis” value (TNFα synthesis [6]) was “effectively inhibit TNFα synthesis” and the “PHA stimulated synthesis of IL-5” value (IL-5 synthesis) was “inhibits”. For the same molecule, the “PHA stimulated synthesis of IL-4” value (IL-4 synthesis) was “inhibits”, the “PHA stimulated synthesis of IFNγ” value (IFNγ synthesis) was “inhibits” and the “PHA stimulated synthesis of IL-1β” value (IL-1β synthesis) was “inhibits”. For the same molecule, the “level of IL-7” value (IL-7 synthesis) was “increased” and the “PHA stimulated synthesis of IL-2” value (IL-2 synthesis) was “inhibits”.

For chondroitin sulphate, the “inflammatory cell accumulation and inflammation” value (inflamed joints) is given as “reduces inflammatory cell accumulation and inflammation”.

In the case of 2-hydroxysucrose heptasulphate, the “FGF dependent dimerisation” value (FGF receptors) is given as “much lesser extent”.

For O=S(=O)(O)OC[C@H]1O[C@@](COS(=O)(=O)O)(O[C@H]2O[C@H](COS(=O)(=O)O)[C@@H](OS(=O)(=O)O)[C@H](OS(=O)(=O)O)[C@H]2OS(=O)(=O)O)[C@@H](OS(=O)(=O)O)[C@@H]1OS(=O)(=O)O [sucrose octasulphate], the “FGF dependent dimerisation” value (FGF receptors) is given as “induced FGF dependent dimerisation of FGF receptors”, the binding to follistatin (follistatin) is given as “bind” and the “binding to MCP-1” value [7] is given as “bind”. The “binding to natural killer cell receptor C-type lectin-like domain” value [8] was “bind” and the “binding to hepatocyte growth factor” value (hepatocyte growth factor) was “bind”.
